According to patent US9211310B2, “Use of a Chinese medicine composition in preparing medicaments for treating secondary prevention of myocardial infarction” (TASLY PHARMACEUTICAL GROUP CO., LTD, priority 2010, dated 2015):

System: patients after acute myocardial infarction
Assay: TCM symptom score, total and single (chest pain, chest tightness, short breath, fatigue, palpitation, spontaneous perspiration, pale complexion), same clinical trial
Format: in vivo, human
Design: total score of TCM symptom, Mean / total score of TCM symptom, Min / total score of TCM symptom, Max / total score of TCM symptom, Md / change of total score of TCM symptom, Mean / change of total score of TCM symptom, Max / change of total score of TCM symptom, Md: scale not given here
Conditions: FAS
Excerpt: 3508 patients who were in accordance with the diagnostic standards of AMI for 28 days to 2 years and differentiated as Qi deficiency and blood stagnation syndrome by TCM were studied. 0.5 g Chinese medicine composition prepared by the method of EXAMPLE 1 (Coded as QSYQ) was administrated half an hour after meal, 3 times per day.
They included the overall survival time, angina pectoris score, TCM symptom score and life quality score, where angina pectoris score, TCM symptom score and life quality score were evaluated at randomization, in 1st, 3rd, 6th, 9th, 12th month after treatment and 18th month after follow-up.
The analysis method referred to the angina pectoris score.

[1] = 6 months after treatment-baseline
[2] = 9 months after treatment-baseline

CC(=O)Oc1ccccc1C(=O)O [Control group, aspirine]
change of fatigue −2, number of patients [1]: 108 | change of fatigue −4, % of patients [1]: (0.70%) | change of fatigue −4, number of patients [1]: 12 | change of fatigue −6, % of patients [1]: (0.00%) | change of fatigue −6, number of patients [1]: 0 | change of pale complexion 0, number of patients [1]: 1322 | change of pale complexion 0, percent of patients [1]: (77.40%) | change of pale complexion 1, number of patients [1]: 319 | change of pale complexion 1, percent of patients [1]: (18.68%) | change of pale complexion −1, number of patients [1]: 67 | change of pale complexion −1, percent of patients [1]: (3.92%) | change of palpitation 0, number of patients [1]: 1034 | change of palpitation 0, percent of patients [1]: (60.47%) | change of palpitation 1, number of patients [1]: 490 | change of palpitation 1, percent of patients [1]: (28.65%) | change of palpitation 2, number of patients [1]: 56 | change of palpitation 2, percent of patients [1]: (3.27%) | change of palpitation 3, number of patients [1]: 9 | change of palpitation 3, percent of patients [1]: (0.53%) | change of palpitation −1, percent of patients [1]: (6.78%) | change of palpitation −2, number of patients [1]: 5 | change of palpitation −2, percent of patients [1]: (0.29%) | change of palpitation −3, number of patients [1]: 0 | change of palpitation −3, percent of patients [1]: (0.00%) | change of short breath 0, % of patients [1]: (64.85%) | change of short breath 0, number of patients [1]: 1109 | change of short breath 2, % of patients [1]: (25.44%) | change of short breath 2, number of patients [1]: 435 | change of short breath 4, % of patients [1]: (2.98%) | change of short breath 4, number of patients [1]: 51 | change of short breath 6, % of patients [1]: (0.53%) | change of short breath 6, number of patients [1]: 9 | change of short breath −2, % of patients [1]: (5.96%) | change of short breath −2, number of patients [1]: 102 | change of short breath −4, % of patients [1]: (0.12%) | change of short breath −4, number of patients [1]: 2 | change of short breath −6, % of patients [1]: (0.12%) | change of short breath −6, number of patients [1]: 2 | change of spontaneous perspiration 0, number of patients [1]: 959 | change of spontaneous perspiration 0, percent of patients [1]: (56.11%) | change of spontaneous perspiration 1, number of patients [1]: 468 | change of spontaneous perspiration 1, percent of patients [1]: (27.38%) | change of spontaneous perspiration 2, number of patients [1]: 93 | change of spontaneous perspiration 2, percent of patients [1]: (5.44%) | change of spontaneous perspiration 3, number of patients [1]: 29 | change of spontaneous perspiration 3, percent of patients [1]: (1.70%) | change of spontaneous perspiration −1, number of patients [1]: 137 | change of spontaneous perspiration −1, percent of patients [1]: (8.02%) | change of spontaneous perspiration −2, number of patients [1]: 23 | change of spontaneous perspiration −2, percent of patients [1]: (1.35%) | change of spontaneous perspiration −3, number of patients [1]: 0 | change of spontaneous perspiration −3, percent of patients [1]: (0.00%) | change of total score of TCM symptom, Max [1]: 19.00 | change of total score of TCM symptom, Md [1]: −3.00 | change of total score of TCM symptom, Mean [1]: −3.76 | change of total score of TCM symptom, Min [1]: −33.00 | distribution of total score of TCM symptom: Medium, number of patients (9 months after treatment): 345 | distribution of total score of TCM symptom: Medium, percentage of patients (9 months after treatment): (23.03%) | distribution of total score of TCM symptom: Mild, number of patients (9 months after treatment): 1149 | distribution of total score of TCM symptom: Mild, percentage of patients (9 months after treatment): (76.70%) | distribution of total score of TCM symptom: Severe, number of patients (9 months after treatment): 4 | distribution of total score of TCM symptom: Severe, percentage of patients (9 months after treatment): (0.27%) | fatigue score 0, % of patients (9 months after treatment): (33.53%) | fatigue score 0, number of patients (9 months after treatment): 576 | fatigue score 2, % of patients (9 months after treatment): (60.24%) | fatigue score 2, number of patients (9 months after treatment): 1035 | fatigue score 4, % of patients (9 months after treatment): (5.12%) | fatigue score 4, number of patients (9 months after treatment): 88 | fatigue score 6, % of patients (9 months after treatment): (1.11%) | fatigue score 6, number of patients (9 months after treatment): 19 | pale complexion score 0, number of patients (9 months after treatment): 912 | pale complexion score 0, percent of patients (9 months after treatment): (53.08%) | pale complexion score 1, number of patients (9 months after treatment): 653 | pale complexion score 1, percent of patients (9 months after treatment): (38.01%) | pale complexion score 2, number of patients (9 months after treatment): 142 | pale complexion score 2, percent of patients (9 months after treatment): (8.27%) | pale complexion score 3, number of patients (9 months after treatment): 11 | pale complexion score 3, percent of patients (9 months after treatment): (0.64%) | palpitation score 0, number of patients (9 months after treatment): 581 | palpitation score 0, percent of patients (9 months after treatment): (33.82%) | palpitation score 2, number of patients (9 months after treatment): 929 | palpitation score 2, percent of patients (9 months after treatment): (54.07%) | palpitation score 4, number of patients (9 months after treatment): 179 | palpitation score 4, percent of patients (9 months after treatment): (10.42%) | palpitation score 6, number of patients (9 months after treatment): 29 | palpitation score 6, percent of patients (9 months after treatment): (1.69%) | short breath score 0, % of patients (9 months after treatment): (28.46%) | short breath score 0, number of patients (9 months after treatment): 489 | short breath score 3, % of patients (9 months after treatment): (57.86%) | short breath score 3, number of patients (9 months after treatment): 994 | short breath score 6, % of patients (9 months after treatment): (13.21%) | short breath score 6, number of patients (9 months after treatment): 227 | short breath score 9, % of patients (9 months after treatment): (0.47%) | short breath score 9, number of patients (9 months after treatment): 8 | spontaneous perspiration score 0, number of patients (9 months after treatment): 788 | spontaneous perspiration score 0, percent of patients (9 months after treatment): (45.87%) | spontaneous perspiration score 1, number of patients (9 months after treatment): 813 | spontaneous perspiration score 1, percent of patients (9 months after treatment): (47.32%) | spontaneous perspiration score 2, number of patients (9 months after treatment): 105 | spontaneous perspiration score 2, percent of patients (9 months after treatment): (6.11%) | spontaneous perspiration score 3, number of patients (9 months after treatment): 12 | spontaneous perspiration score 3, percent of patients (9 months after treatment): (0.70%) | total score of TCM symptom, Max (9 months after treatment): 37.00 | total score of TCM symptom, Md (9 months after treatment): 8.00 | total score of TCM symptom, Mean (9 months after treatment): 9.29 | total score of TCM symptom, Min (9 months after treatment): 0.00 | change of fatigue 0, % of patients [2]: (50.53%) | change of fatigue 0, number of patients [2]: 864 | change of fatigue 2, % of patients [2]: (33.45%) | change of fatigue 2, number of patients [2]: 572 | change of fatigue 4, % of patients [2]: (7.31%) | change of fatigue 4, number of patients [2]: 125 | change of fatigue 6, % of patients [2]: (1.17%) | change of fatigue 6, number of patients [2]: 20 | change of fatigue −2, % of patients [2]: (6.73%) | change of fatigue −2, number of patients [2]: 115 | change of fatigue −4, % of patients [2]: (0.76%) | change of fatigue −4, number of patients [2]: 13 | change of fatigue −6, % of patients [2]: (0.06%) | change of fatigue −6, number of patients [2]: 1 | change of pale complexion 0, number of patients [2]: 1284 | change of pale complexion 0, percent of patients [2]: (75.18%) | change of pale complexion 1, number of patients [2]: 365 | change of pale complexion 1, percent of patients [2]: (21.37%)
